Laboratory results published in patent publication US20020052295A1, “Diacyl derivatives of propylene diamine having herbicidal activity” (priority 1999, published 2002).

Columns and labels:
Settings in all cases: lowest tested rate giving 80% or greater inhibition, approx. 14 days after planting and treating, greenhouse
AMARE = assay: Pre-emergence herbicidal activity on AMARE (redroot pigweed); assay type: in vivo, Amaranthus retroflexus
Source text: (§1) All such uses, and the biological activity enabling such uses, are embraced by the term “herbicidal” herein. Tables 15 and 16 summarize results of tests conducted as described below to determine the pre-emergence herbicidal activity, in the form of a GR80 value, of illustrative compounds of this invention. […] Where herbicidal activity was evident but 80% inhibition was not achieved at the highest rate tested (typically 1000 g/ha), an asterisk (*) is shown in the following tables. Herbicidal activity evident in the form of symptoms of phytotoxicity, in the absence of at least 80% inhibition at any rate, is indicated in the tables by “phyto”. A blank cell in the following tables indicates no herbicidal or phytotoxic response at any rate tested.
(§2) The pre-emergence tests were conducted by the following procedure. Topsoil was sieved to pass through a 1.27 cm screen. Fertilizer was added to the topsoil and the mixture was then sterilized by heating. The topsoil mixture was placed in a pot and compacted to a depth of 1.0 to 1.25 cm from the top of the pot. Seeds of each of several monocotyledonous and dicotyledonous annual plant species were placed on top of the soil. Additional soil was subsequently placed over the seeds to level-fill the pot. A known amount of each test compound dissolved or suspended in an appropriate organic solvent was diluted with a 50:50 mix of acetone and water and applied to the surface of the soil. After treatment the plants were placed in a greenhouse with a 30/21° C. day/night temperature regime where they received 0.64 cm of overhead irrigation. All subsequent watering consisted of a light overhead mist and/or subirrigation as needed for germination and growth.
(§3) Approximately 14 days after planting and treating, the plants were observed and herbicidal efficacy recorded as percent inhibition by comparison with untreated plants.
(§4) The plant species usually regarded as weeds which were utilized in the tests are identified in the tables below according to the following legend, in which “d” indicates a dicotyledonous species and “m” a monocotyledonous species. All monocotyledonous species included in the tests herein are grasses.

PANMI = assay: Pre-emergence herbicidal activity on PANMI (wild proso millet); assay type: in vivo, Panicum miliaceum
Source text: as §1, §2, §3, §4

SETFA = assay: Pre-emergence herbicidal activity on SETFA (giant foxtail); assay type: in vivo, Setaria faberi
Source text: as §1, §2, §3, §4

PANDI = assay: Pre-emergence herbicidal activity on PANDI (fall panicum); assay type: in vivo, Panicum dichotomiflorum
Source text: as §1, §2, §3, §4

DIGSA = assay: Pre-emergence herbicidal activity on DIGSA (large crabgrass); assay type: in vivo, Digitaria sanguinalis
Source text: as §1, §2, §3, §4

DATST = assay: Pre-emergence herbicidal activity on DATST (jimsonweed); assay type: in vivo, Datura stramonium
Source text: as §1, §2, §3, §4

CHEAL = assay: Pre-emergence herbicidal activity on CHEAL (common lambsquarters); assay type: in vivo, Chenopodium album
Source text: as §1, §2, §3, §4

POROL = assay: Pre-emergence herbicidal activity on POROL (common purslane); assay type: in vivo, Portulaca oleracea
Source text: as §1, §2, §3, §4

CIRAR = assay: Pre-emergence herbicidal activity on CIRAR (canada thistle, seedling); assay type: in vivo, Cirsium arvense
Source text: as §1, §2, §3, §4

SOLNI = assay: Pre-emergence herbicidal activity on SOLNI (black nightshade); assay type: in vivo, Solanum nigrum
Source text: as §1, §2, §3, §4

ABUTH = assay: Pre-emergence herbicidal activity on ABUTH (velvetleaf); assay type: in vivo, Abutilon theophrasti
Source text: as §1, §2, §3, §4

Row | SMILES | Pre-emergence activity (GR80) on AMARE (AMARE) [g/ha] | Pre-emergence activity (GR80) on PANMI (PANMI) | Pre-emergence activity (GR80) on SETFA (SETFA) | Pre-emergence activity (GR80) on PANDI (PANDI) | Pre-emergence activity (GR80) on DIGSA (DIGSA) | Pre-emergence activity (GR80) on DATST (DATST) | Pre-emergence activity (GR80) on CHEAL (CHEAL) | Pre-emergence activity (GR80) on PORAL (POROL) [g/ha] | Pre-emergence activity (GR80) on CIRAR (CIRAR) | Pre-emergence activity (GR80) on SOLNI (SOLNI) | Pre-emergence activity (GR80) on ABUTH (ABUTH)
1 | CC(CNC(=O)c1cccc(C(F)(F)F)c1)NC(=O)c1ccc(F)c(C(F)(F)F)c1 (stereo not drawn) [Example 6] | 1000 | phyto | phyto | phyto | phyto |  |  |  |  |  | 
2 | O=C(NCC(CF)NC(=O)c1cccc(C(F)(F)F)c1)c1cccc(C(F)(F)F)c1 (stereo not drawn) [Example 10, N,N′-(3-fluoro-1,2-propanediylbis)-3-(trifluoromethyl) benzamide] | 500 | phyto | phyto | 1000 g/ha | phyto | phyto | 750 g/ha | 1000 | phyto |  | 
3 | COc1c(C(=O)NC(C)CNC(=O)c2cccc(C(F)(F)F)c2)cccc1C(F)(F)F (stereo not drawn) [Example 17] | 1000 |  | phyto | phyto | 1000 g/ha | phyto | 1000 g/ha | 1000 |  | phyto | 
4 | CC(CNC(=O)c1cccc(C(F)(F)F)c1)NC(=O)c1cccc(C(F)(F)F)c1OCc1ccccc1 (stereo not drawn) [Example 20] | 1000 | phyto |  | phyto | phyto |  | phyto |  | phyto |  | 
5 | Cc1c(I)cccc1C(=O)NC(C)CNC(=O)c1cccc(C(F)(F)F)c1 (stereo not drawn) [Example 61] | 750 |  | 1000 g/ha | 750 g/ha | 1000 g/ha | 1000 g/ha | 1000 g/ha | 500 | 250 g/ha | 250 g/ha | * (Where herbicidal activity was evident but 80% inhibition was not achieved at the highest rate tested (typically 1000 g/ha), an asterisk (*) is shown)
6 | COc1c(C)cccc1C(=O)NC(C)CNC(=O)c1cccc(C(F)(F)F)c1 (stereo not drawn) [Example 68] |  |  |  | phyto | phyto |  |  |  |  |  | 
7 | CC(CNC(=O)c1cccc(Cl)c1)NC(=O)c1cccc(C(F)(F)F)c1F (stereo not drawn) [Example 145] | 125 |  | 750 g/ha | 500 g/ha | 250 g/ha |  | 125 g/ha | 125 | 125 g/ha | 1000 g/ha | 500 g/ha
8 | Cc1c(Cl)cccc1C(=O)NCC(C)NC(=O)c1cccc(Cl)c1C (stereo not drawn) [Example 203] |  |  |  |  |  | phyto | 1000 g/ha |  | phyto | phyto | phyto
9 | CC(CNC(=O)c1cccc(C(F)(F)F)c1)NC(=O)c1c(-c2ccc(F)cc2Cl)noc1C(F)(F)Cl (stereo not drawn) [Example 264] | 250 |  |  | 1000 g/ha |  | 1000 g/ha | 500 g/ha | 500 |  | 250 g/ha | 
